Test results published in patent US20200392158A1, “INHIBITORS OF LEUCINE RICH REPEAT KINASE 2” (GLAXOSMITHKLINE INTELLECTUAL PROPERTY DEVELOPMENT LIMITED, priority 2017, published 2020).

target: T1, full length G2019 human LRRK2 (Homo sapiens, UniProt Q5S007, R50H); assay: Full length G2019 human LRRK2 inhibition mass spectrometry assay; type: biochemical; details: LRRKtide to phospho-LRRKtide conversion, RapidFire MS, 2 mM ATP
T1 construct: made in house; host or cells: HEK293 6E cells transduced with BacMam virus (virus generated in Sf9 cells)
Summary of the method: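 Inhibition taken as reduced LRRKtide phosphorylation, quantified by RapidFire-coupled triple-quadrupole MS as product/(product+substrate) peak area. Reaction: 2 mM ATP, 25 μM peptide, ~25 nM full-length G2019 Flag-LRRK2, Hepes pH 7.2 buffer, room temperature for 1 h. 11-point 1-in-4 dilutions from 100 μM; logistic fit gives IC50, reported as pIC50.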

T1 sequence (Q5S007 with tags, fused parts or gaps R50H): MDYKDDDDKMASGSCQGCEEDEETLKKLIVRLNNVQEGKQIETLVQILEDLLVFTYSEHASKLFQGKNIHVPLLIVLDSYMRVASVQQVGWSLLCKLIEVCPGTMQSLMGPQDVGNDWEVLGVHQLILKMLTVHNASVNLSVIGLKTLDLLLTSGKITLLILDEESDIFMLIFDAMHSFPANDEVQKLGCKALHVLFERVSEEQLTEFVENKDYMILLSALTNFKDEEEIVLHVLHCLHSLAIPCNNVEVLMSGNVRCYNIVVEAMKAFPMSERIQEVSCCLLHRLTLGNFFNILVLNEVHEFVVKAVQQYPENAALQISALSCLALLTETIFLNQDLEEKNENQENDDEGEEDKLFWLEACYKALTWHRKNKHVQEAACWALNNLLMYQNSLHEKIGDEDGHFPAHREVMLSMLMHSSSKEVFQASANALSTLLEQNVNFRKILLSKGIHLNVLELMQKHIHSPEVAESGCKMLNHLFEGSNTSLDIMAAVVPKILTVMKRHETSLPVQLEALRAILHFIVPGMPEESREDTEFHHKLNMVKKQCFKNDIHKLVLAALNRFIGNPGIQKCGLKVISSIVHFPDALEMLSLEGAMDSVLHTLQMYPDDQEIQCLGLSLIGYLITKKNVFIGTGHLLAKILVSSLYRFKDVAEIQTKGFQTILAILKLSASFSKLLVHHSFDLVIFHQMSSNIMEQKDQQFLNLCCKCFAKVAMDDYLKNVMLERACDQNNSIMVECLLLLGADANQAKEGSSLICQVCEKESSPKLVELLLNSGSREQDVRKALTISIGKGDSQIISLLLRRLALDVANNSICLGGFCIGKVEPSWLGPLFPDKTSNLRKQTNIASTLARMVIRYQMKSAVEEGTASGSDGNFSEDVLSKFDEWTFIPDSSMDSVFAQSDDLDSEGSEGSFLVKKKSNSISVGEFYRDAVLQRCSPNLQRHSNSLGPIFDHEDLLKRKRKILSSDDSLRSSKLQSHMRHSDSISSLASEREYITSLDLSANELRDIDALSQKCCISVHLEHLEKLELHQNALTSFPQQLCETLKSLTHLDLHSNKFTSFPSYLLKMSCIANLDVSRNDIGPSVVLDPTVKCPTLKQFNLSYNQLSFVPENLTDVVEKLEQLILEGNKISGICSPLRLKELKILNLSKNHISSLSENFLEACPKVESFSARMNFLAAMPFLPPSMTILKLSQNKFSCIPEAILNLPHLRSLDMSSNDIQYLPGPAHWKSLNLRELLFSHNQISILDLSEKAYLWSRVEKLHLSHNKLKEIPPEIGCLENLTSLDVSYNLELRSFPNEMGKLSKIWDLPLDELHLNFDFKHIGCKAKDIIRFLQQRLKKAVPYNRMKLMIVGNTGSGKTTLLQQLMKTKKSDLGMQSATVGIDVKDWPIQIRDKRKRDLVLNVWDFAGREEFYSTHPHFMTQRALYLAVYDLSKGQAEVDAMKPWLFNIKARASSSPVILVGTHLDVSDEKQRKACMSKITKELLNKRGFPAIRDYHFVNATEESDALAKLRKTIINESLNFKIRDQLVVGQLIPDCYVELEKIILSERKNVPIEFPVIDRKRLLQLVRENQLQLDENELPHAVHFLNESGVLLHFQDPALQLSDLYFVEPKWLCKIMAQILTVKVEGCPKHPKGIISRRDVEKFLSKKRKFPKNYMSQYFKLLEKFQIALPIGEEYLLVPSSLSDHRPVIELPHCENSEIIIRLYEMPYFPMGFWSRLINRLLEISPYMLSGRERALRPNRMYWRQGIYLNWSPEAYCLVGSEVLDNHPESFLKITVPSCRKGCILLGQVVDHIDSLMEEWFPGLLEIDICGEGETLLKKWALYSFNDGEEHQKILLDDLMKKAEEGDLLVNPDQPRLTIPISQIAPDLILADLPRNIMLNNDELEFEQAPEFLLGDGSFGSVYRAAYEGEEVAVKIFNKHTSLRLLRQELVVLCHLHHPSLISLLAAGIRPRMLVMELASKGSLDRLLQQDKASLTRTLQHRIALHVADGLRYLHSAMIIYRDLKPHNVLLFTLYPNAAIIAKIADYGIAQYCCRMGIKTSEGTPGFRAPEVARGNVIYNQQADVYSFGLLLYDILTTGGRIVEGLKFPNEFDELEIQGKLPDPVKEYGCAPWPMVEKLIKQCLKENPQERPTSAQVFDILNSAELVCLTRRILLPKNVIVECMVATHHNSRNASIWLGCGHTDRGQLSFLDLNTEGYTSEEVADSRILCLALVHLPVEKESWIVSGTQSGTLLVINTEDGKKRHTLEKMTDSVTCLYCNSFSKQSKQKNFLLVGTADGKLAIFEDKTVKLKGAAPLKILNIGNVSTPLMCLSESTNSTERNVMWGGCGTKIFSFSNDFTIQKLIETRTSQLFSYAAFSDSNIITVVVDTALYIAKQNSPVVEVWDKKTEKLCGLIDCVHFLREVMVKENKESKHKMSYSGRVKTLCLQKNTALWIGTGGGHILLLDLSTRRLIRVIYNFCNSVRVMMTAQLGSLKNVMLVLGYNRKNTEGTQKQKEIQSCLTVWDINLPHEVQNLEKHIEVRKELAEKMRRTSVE

Compound | IC50
Cc1c2c(nn1CC(C)(C)O)OCCCNc1nc(ncc1Cl)N2 [E263, 1-{14-Chloro-4-methyl-8-oxa-2,5,6,12,16,17-hexaazatricyclo [11.3.1.0^3,7]heptadeca-1(16),3,6,13(17),14-pentaen-5-yl}-2-methylpropan-2-ol] | ≤ 10000 nM
COc1cnc2nc1N[C@H](C)CCOc1nn(C3CCOCC3)c(C)c1N2 [E294, (11R)-14-Methoxy-4,11-dimethyl-5-(oxan-4-yl)-8-oxa-2,5,6,12,16, 17-hexaazatricyclo[11.3.1.0^3,7]heptadeca-1(16),3,6,13(17),14-pentaene] | ≤ 10000 nM
Cc1c2c(nn1C1CCOCC1)OCC[C@@H](C)Nc1nc(ncc1F)N2 [E295, (11R)-14-Fluoro-4,11-dimethyl-5-(oxan-4-yl)-8-oxa-2,5,6,12,16,17-hexaazatricyclo[11.3.1.0^3,7]heptadeca-1(16),3,6,13(17),14-pentaene] | ≤ 100 nM
Cc1cnc2nc1N[C@H](C)CCOc1nn(C3CCOCC3)c(C)c1N2 [E296, (11R)-14-Methyl-4,11-dimethyl-5-(oxan-4-yl)-8-oxa-2,5,6,12,16,17-hexaazatricyclo[11.3.1.0^3,7]heptadeca-1(16),3,6,13(17),14-pentaene] | ≤ 10000 nM

The next lines start with the values.

IC50 | Compound
≤ 100 nM | Cc1c2c(nn1C1CCOCC1)OCC[C@@H](C(C)C)Nc1nc(ncc1Cl)N2 [E298, (11S)-14-Chloro-4-methyl-5-(oxan-4-yl)-11-(propan-2-yl)-8-oxa-2,5,6,12,16,17-hexaazatricyclo[11.3.1.0^3,7]heptadeca-1(16),3,6,13(17),14-pentaene]
≤ 10000 nM | Cc1c2c(nn1C1CCOCC1)OCCC(C)(C)Nc1nc(ncc1Cl)N2 [E299, 14-Chloro-4,11,11-trimethyl-5-(oxan-4-yl)-8-oxa-2,5,6,12,16,17-hexaazatricyclo[11.3.1.0^3,7]heptadeca-1(16),3,6,13(17),14-pentaene]
≤ 10000 nM | Cc1c2c(nn1C(C)(C)C#N)OCC[C@@H](C(C)C)Nc1nc(ncc1Cl)N2 [E323, 2-[(11S)-14-Chloro-4-methyl-11-(propan-2-yl)-8-oxa-2,5,6,12, 16,17-hexaazatricyclo[11.3.1.0^3,7]heptadeca-1(16),3,6,13(17),14-pentaen-5-yl]-2-methylpropanenitrile]
≤ 10000 nM | CCN1CCCOc2nn(C3CCOCC3)c(C)c2Nc2ncc(Cl)c1n2 [E360, 14-Chloro-12-ethyl-4-methyl-5-(oxan-4-yl)-8-oxa-2,5,6,12,16,17-hexaazatricyclo[11.3.1.0^3,7]heptadeca-1(16),3,6,13(17),14-pentaene]
≤ 100 nM | Cc1c2c(nn1C1CN(C3CCOCC3)C1)OC[C@@H](F)[C@@H](C)Nc1nc(ncc1Cl)N2 [E388, (10S, 11R)-14-Chloro-10-fluoro-4,11-dimethyl-5-[1-(oxan-4-yl)azetidin-3-yl]-8-oxa-2,5,6,12,16,17-hexaazatricyclo [11.3.1.0^3,7]heptadeca-1(16),3,6,13(17),14-pentaene]
≤ 100 nM | Cc1c2c(nn1C1CN(C3CCCOC3)C1)OC[C@@H](F)[C@@H](C)Nc1nc(ncc1Cl)N2 (stereo partly drawn) [E390, (10S, 11R)-14-Chloro-10-fluoro-4,11-dimethyl-5-[1-(oxan-3-yl)azetidin-3-yl]-8-oxa-2,5,6,12,16,17-hexaazatricyclo [11.3.1.0^3,7]heptadeca-1(16)53,6,13(17),14-pentaene]
≤ 10000 nM | COC(C)c1c2c(nn1C1CCOCC1)OCC[C@@H](C)Nc1nc(ncc1Cl)N2 (stereo partly drawn) [E409, (11R)-14-Chloro-4-(1-methoxyethyl)-11-methyl-5-(oxan-4-yl)-8-oxa-2,5,6,12,16,17-hexaazatricyclo[11.3.1.0^3,7]heptadeca-1(17),3,6,13,15-pentaene]
≤ 100 nM | Cc1c2c(nn1C1(C(F)(F)F)CCOCC1)OCCCNc1nc(ncc1Cl)N2 [E418, 14-Chloro-4-methyl-5-[4-(trifluoromethyl)oxan-4-yl]-8-oxa-2,5,6,12,16,17-hexaazatricyclo[11.3.1.0^3,7]heptadeca-1(16),3,6,13(17),14-pentaene]
≤ 100 nM | Cc1c2c(nn1C1(C(F)(F)F)CCOCC1)OCC[C@@H](C)Nc1nc(ncc1Cl)N2 [E419, (11R)-14-Chloro-4,11-dimethyl-5-[4-(trifluoromethyl)oxan-4-yl]-8-oxa-2,5,6,12,16,17-hexaazatricyclo[11.3.1.0^3,7]heptadeca-1(16),3,6,13(17),14-pentaene]
≤ 100 nM | FC(F)(F)c1c2c(nn1C1CCOCC1)OCCCNc1nc(ncc1Cl)N2 [E424, 14-Chloro-5-(oxan-4-yl)-4-(trifluoromethyl)-8-oxa-2,5,6,12,16,17-hexaazatricyclo[11.3.1.0^3,7]heptadeca-1(16),3,6,13(17),14-pentaene]
≤ 10000 nM | N#Cc1cnc2nc1NCCCOc1n[nH]c(Cl)c1N2 [E426, 4-Chloro-8-oxa-2,5,6,12,16,17-hexaazatricyclo[11.3.1.0^3,7]heptadeca-1(16),3,6,13(17),14-pentaene-14-carbonitrile]

target: T2, LRRK2 kinase in SH-SY5Y cells over-expressing recombinant full length LRRK2 (Homo sapiens, UniProt Q5S007); assay: Recombinant cellular LRRK2 AlphaScreen assay (LRRK2 Ser935 phosphorylation); type: cell-based; details: 60 min
T2 construct: A BacMam virus expressing full length recombinant LRRK2 was purchased from Invitrogen; host or cells: SH-SY5Y human neuroblastoma cells transduced with BacMam LRRK2 virus
From the text: b. Recombinant Cellular LRRK2 AlphaScreen Assay
To determine the activity of compounds against LRRK2 kinase in cells, the observed LRRK2 kinase-dependent modulation of LRRK2 Ser 935 phosphorylation (Dzamko et al., 2010, Biochem. J. 430: 405-413) was utilized to develop a quantitative 384 well plate-based immunoassay of LRRK2 Ser935 phosphorylation in the human neuroblastoma cell line SH-SY5Y, engineered to over-express recombinant full length LRRK2 protein.
A BacMam virus expressing full length recombinant LRRK2 was purchased from Invitrogen and amplified by inoculation of SF-9 cells at MOI 0.3 for 4-5 days in Sf-900 III SFM medium supplemented with 3% fetal bovine serum. Infected cell cultures were then centrifuged at 2000 g for 20 minutes, viral supernatant titer determined by anti-gp64 plaque assay and stored at 4° C.
Affinity-purified anti-phospho LRRK2 Ser935 sheep polyclonal antibody (Dzamko et al., 2010, Biochem. J. 430: 405-413) was biotinylated by standard methods (PerkinElmer). Anti-LRRK2 rabbit polyclonal antibody was purchased from Novus Biologicals. AlphaScreen Protein A IgG Kit (including acceptor and donor beads) was purchased from Perkin Elmer.
SH-SY5Y cells were grown in DMEM/F12 medium with 10% dialysed fetal bovine serum and harvested by treatment with 0.5% trypsin-EDTA for 5 minutes at 37° C. followed by centrifugation at 1000 rpm for 4 minutes. The cell pellet was resuspended in Opti-MEM reduced serum media (Invitrogen) at 200,000 cells/ml and mixed with the BacMam LRRK2 virus at M01=50. 50 μl cell solutions were then dispensed to each well of a 384-well plate and incubated at 37° C., 5% CO2 for 24 hours.
Compounds were prepared at 10× final assay concentration as 11 point 1 in 4 serial I dilutions in Opti-MEM reduced serum medium (Invitrogen 31985070) containing 1% DMSO. On the day of assay, 5.5 μl of the compound solutions were transferred from the compound plate to the cell assay plate to achieve a top final assay concentration of 10 uM. DMSO (0.1% final assay concentration) was added to column 6 and 2-(benzyloxy)-5-methyl-4-(1-methyl-1H-pyrazol-4-yl)-N-(pyridin-3-yl)benzamide (2 μM final assay concentration) was added to column 18 to serve as 0% and 100% inhibition controls, respectively.
Cells were incubated at 37° C., 5% CO2 for 60 minutes. The medium was then removed and cells lysed by addition of 20 μl of cell lysis buffer (Cell Signaling Technology) and incubation at 4° C. for 20 minutes. 10 μl of antibody/acceptor bead mix [(1/1000 biotinylated-pS935 LRRK2 antibody, 1/1000 total-LRRK2 antibody, 1/100 Acceptor beads in AlphaScreen detection buffer (25 mM Hepes (pH 7.4), 0.5% Triton X-100, 1 mg/ml Dextran 500 and 0.1% BSA)] was then added to each well and plates incubated for 2 hours at ambient temperature in the dark. 10 μl of donor beads solution (1/33.3 donor beads in AlphaScreen detection buffer) was then added to each well. Following incubation for a further 2 hours at ambient temperature in the dark, plates were read on an EnVision™ plate reader at emission 520-620 nm with excitation 680 nm. Dose response curve data was based on a sigmoidal dose-response model.

T2 sequence (Q5S007 whole entry): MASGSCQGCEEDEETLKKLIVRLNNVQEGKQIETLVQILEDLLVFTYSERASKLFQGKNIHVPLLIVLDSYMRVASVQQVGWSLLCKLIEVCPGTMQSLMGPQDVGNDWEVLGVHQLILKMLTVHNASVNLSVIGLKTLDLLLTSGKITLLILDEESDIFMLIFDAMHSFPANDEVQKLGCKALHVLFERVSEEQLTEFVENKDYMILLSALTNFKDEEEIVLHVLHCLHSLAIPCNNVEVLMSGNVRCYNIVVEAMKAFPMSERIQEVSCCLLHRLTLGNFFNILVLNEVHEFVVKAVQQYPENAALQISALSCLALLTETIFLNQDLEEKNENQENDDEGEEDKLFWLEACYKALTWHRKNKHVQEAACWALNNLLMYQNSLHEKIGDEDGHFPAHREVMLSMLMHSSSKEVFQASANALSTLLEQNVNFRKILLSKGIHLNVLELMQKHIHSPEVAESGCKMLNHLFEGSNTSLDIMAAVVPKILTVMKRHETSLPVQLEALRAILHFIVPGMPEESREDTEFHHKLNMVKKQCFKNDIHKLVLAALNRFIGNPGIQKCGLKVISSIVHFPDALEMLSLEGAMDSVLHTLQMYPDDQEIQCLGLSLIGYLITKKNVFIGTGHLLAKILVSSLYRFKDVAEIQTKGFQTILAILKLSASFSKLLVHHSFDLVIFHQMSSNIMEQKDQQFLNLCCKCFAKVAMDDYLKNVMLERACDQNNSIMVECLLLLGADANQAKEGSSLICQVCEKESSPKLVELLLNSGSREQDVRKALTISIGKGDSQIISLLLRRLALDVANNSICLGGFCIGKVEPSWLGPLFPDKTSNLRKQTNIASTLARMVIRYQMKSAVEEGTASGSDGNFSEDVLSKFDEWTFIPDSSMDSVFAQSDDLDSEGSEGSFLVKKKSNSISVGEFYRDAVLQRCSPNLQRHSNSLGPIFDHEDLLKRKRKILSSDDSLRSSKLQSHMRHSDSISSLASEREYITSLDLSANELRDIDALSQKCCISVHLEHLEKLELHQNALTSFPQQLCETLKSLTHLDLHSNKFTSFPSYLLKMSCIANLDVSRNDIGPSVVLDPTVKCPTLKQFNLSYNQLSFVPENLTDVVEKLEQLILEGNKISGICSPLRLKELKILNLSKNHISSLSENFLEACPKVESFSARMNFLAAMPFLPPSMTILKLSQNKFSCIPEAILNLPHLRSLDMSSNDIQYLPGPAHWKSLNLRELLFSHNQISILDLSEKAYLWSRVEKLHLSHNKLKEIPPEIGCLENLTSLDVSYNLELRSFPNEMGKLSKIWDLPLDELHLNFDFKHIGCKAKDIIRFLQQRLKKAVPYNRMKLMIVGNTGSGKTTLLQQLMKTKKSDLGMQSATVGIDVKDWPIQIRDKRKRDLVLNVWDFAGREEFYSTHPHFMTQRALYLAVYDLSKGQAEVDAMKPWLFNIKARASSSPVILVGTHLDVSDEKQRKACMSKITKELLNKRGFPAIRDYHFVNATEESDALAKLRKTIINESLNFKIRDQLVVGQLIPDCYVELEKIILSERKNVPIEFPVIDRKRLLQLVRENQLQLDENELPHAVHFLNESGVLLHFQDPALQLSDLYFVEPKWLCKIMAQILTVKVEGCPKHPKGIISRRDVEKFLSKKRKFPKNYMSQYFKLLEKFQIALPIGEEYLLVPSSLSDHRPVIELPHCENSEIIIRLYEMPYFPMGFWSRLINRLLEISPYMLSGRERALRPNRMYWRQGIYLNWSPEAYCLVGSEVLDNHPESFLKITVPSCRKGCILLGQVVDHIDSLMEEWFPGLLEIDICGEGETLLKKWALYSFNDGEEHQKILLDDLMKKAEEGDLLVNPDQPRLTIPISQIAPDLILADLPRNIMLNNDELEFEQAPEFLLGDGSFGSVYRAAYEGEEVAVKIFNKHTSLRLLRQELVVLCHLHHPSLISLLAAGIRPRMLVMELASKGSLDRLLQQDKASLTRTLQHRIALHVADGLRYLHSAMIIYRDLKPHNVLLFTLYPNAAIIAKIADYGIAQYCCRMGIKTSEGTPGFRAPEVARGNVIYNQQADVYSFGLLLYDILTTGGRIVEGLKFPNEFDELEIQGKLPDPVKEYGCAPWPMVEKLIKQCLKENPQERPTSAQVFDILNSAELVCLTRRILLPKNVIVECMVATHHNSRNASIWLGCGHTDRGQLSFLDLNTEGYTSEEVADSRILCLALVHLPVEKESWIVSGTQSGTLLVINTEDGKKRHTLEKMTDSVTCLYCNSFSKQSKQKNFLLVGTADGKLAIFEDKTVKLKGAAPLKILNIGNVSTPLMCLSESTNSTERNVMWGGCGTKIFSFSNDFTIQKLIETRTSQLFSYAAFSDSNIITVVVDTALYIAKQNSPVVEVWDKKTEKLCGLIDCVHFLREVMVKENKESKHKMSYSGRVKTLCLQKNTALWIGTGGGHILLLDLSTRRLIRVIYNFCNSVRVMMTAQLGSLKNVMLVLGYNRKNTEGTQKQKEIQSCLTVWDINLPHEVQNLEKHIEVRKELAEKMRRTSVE

IC50 | Compound
> 10000 nM | Cc1c2c(nn1C1CC3(COC3)C1)OCCC(C)Nc1nc(ncc1Cl)N2 (racemic)
≤ 100 nM | Cc1c2c(nn1C1CCCOC1)OCCCNc1nc(ncc1Cl)N2 (single isomer, unassigned) [E10, 14-Chloro-4-methyl-5-(oxan-3-yl)-8-oxa-2,5,6,12,16,17-hexaaza tricyclo-[11.3.1.0^3,7]heptadeca-1(16),3,6,13(17),14-pentaene]
≤ 100 nM | Cc1c2c(nn1C1CCOCC1)OCC(F)CNc1nc(ncc1Cl)N2 (single isomer, unassigned) [E17, 14-Chloro-10-fluoro-4-methyl-5-(oxan-4-yl)-8-oxa-2,5,6,12,16,17-hexaazatricyclo [11.3.1.0^3,7]heptadeca-1(16),3,6,13(17),14-pentaene]
≤ 100 nM | Cc1c2c(nn1C1CCOCC1F)OCCC(C)Nc1nc(ncc1Cl)N2 (single isomer, unassigned) [E24, 14-chloro-5-(3-fluorooxan-4-yl)-4,11-dimethyl-8-oxa-2,5,6,12,16,17-hexaazatricyclo [11.3.1.0^3,7]heptadeca-1(17),3,6,13,15-pentaene]
≤ 100 nM | CCOC(=O)C(C)(C)n1nc2c(c1C)Nc1ncc(Cl)c(n1)NC(C)CCO2 (single isomer, unassigned) [E38, Ethyl 2-{14-chloro-4,11-dimethyl-8-oxa-2,5,6,12,16,17-hexaazatricyclo [11.3.1.0^3,7]heptadeca-1(16),3,6,13(17),14-pentaen-5-yl}-2-methylpropanoate]
≤ 100 nM | Cc1c2c(nn1C(C)(C)C(N)=O)OCCC(C)Nc1nc(ncc1Cl)N2 (single isomer, unassigned) [E42, 2-{14-chloro-4,11-dimethyl-8-oxa-2,5,6,12,16,17-hexaazatricyclo [11.3.1.0^3,7]heptadeca-1(16),3,6,13(17),14-pentaen-5-yl}-2-methylpropanamide]
≤ 100 nM | Cc1c2c(nn1C(C)(C)C#N)OCCC(C)Nc1nc(ncc1Cl)N2 (single isomer, unassigned) [E44, 2-{14-chloro-4,11-dimethyl-8-oxa-2,5,6,12,16,17-hexaazatricyclo [11.3.1.0^3,7]heptadeca-1(16),3,6,13(17),14-pentaen-5-yl}-2-methylpropanenitrile]
≤ 100 nM | Cc1c2c(nn1C1CCC(N3C[C@@H]4C[C@H]3CO4)CC1)OCCCNc1nc(ncc1Cl)N2 (single isomer, unassigned) [E50]
